Patent publication US20260198497A1, “A BENZENE RING-SUBSTITUTED PYRIMIDINECARBOXYLIC ACID COMPOUND, PREPARATION METHOD THEREFOR, HERBICIDAL COMPOSITION AND APPLICATION THEREOF” (QINGDAO KINGAGROOT CHEMICAL COMPOUND CO., LTD., priority 2023, published 2026)

Tested on: Veronica
Assay: Post-emergence test on weeds
Type: in vivo
Design: key: 0 = no effect, 9 = completely dead (levels by growth control rate)
Settings: 30 g a.i./ha, 3 weeks after application
Source text: The criteria for activity levels of plant damage (i.e., growth control rate) are as follows: • Level 9: completely dead; • Level 8: growth control rate is greater than or equal to 90% and less than 100%; • Level 7: growth control rate is greater than or equal to 80% and less than 90%; • Level 6: growth control rate is greater than or equal to 70% and less than 80%; • Level 5: growth control rate is greater than or equal to 50% and less than 70%; • Level 4: growth control rate is greater than or equal to 30% and less than 50%; • Level 3: growth control rate is greater than or equal to 20% and less than 30%; • Level 2: growth control rate is greater than or equal to 10% and less than 20%; • Level 1: growth control rate is less than 10%; • Level 0: no effect.
The above growth control rates are fresh weight control rates.
Monocotyledonous and dicotyledonous weed seeds (Descurainia sophia, Capsella bursa-pastoris, Abutilon theophrasti, Galium spurium, Stellaria media, Lithospermum arvense, Rorippa indica, Alopecurus aequalis, Alopecurus japonicus, Eleusine indica, Beckmannia syzigachne, Sclerochloa dura, Erigeron canadensis, Phleum paniculatum, Veronica, Bromus japonicus, Aegilops tauschii, Phalaris arundinacea, Amaranthus retroflexus, Chenopodium, Commelina communis, Cichorium endivia, Convolvulus arvensis, Cirsium arvense, Solanum nigrum, Acalypha australis, Digitaria sanguinalis, Echinochloa crusgalli, Setaria viridis, Setaria pumila, Leptochloa chinensis, Monochoria vaginalis, Sagittaria trifolia, Schoenoplectiella juncoides, Cyperus rotundus, Cyperus iria, Cyperus difformis, Fimbristylis, Portulaca oleracea, Xanthium sibiricum, Ipomoea nil, Eschenbachia japonica, etc.) and major crop seeds (wheat, maize, paddy rice, soybean, cotton, oilseed rape, millet, sorghum, potato, sesame, castor plant, Chinese cabbage, radish, etc.) were placed in plastic pots filled with soil and then covered with 0.5-2 cm of soil to allow them to grow in a favorable greenhouse environment. Two weeks after sowing, the test plants were treated at the stage of 2-3 leaves. The test compounds of the present invention were individually dissolved with acetone, then added with Tween® 80, with 1.5 L/ha of methyl oleate emulsifiable concentrate as a synergist, diluted into solution of a certain concentration using a certain amount of water, and sprayed to plants using a spray tower. After drug application, the experimental results on weeds were collected after 3 weeks of cultivation in a greenhouse. The compounds were applied at 120, 60, 30, and 15 g a.i./ha in triplicate, and the results were averaged.

SMILES | activity level of plant damage (growth control rate), Veronica
COc1c(N)nc(-c2ccc(C(F)(F)F)c(OC)c2F)nc1C(=O)O [Compound 1] | 9
CCOCCOC(=O)c1nc(-c2ccc(C(F)(F)F)c(OC)c2F)nc(N)c1OC [Compound 21] | 9
CCCOCCOC(=O)c1nc(-c2ccc(C(F)(F)F)c(OC)c2F)nc(N)c1OC [Compound 22] | 9
COCCOCCOC(=O)c1nc(-c2ccc(C(F)(F)F)c(OC)c2F)nc(N)c1OC [Compound 23] | 9
CCCOC(=O)c1nc(-c2ccc(C(F)(F)F)c(OC)c2F)nc(N)c1OC [Compound 25] | 9
COc1c(N)nc(-c2ccc(C(F)(F)F)c(OC)c2F)nc1C(=O)OC(C)C [Compound 26] | 9
C=CCOC(=O)c1nc(-c2ccc(C(F)(F)F)c(OC)c2F)nc(N)c1OC [Compound 52] | 9
C#CCOC(=O)c1nc(-c2ccc(C(F)(F)F)c(OC)c2F)nc(N)c1OC [Compound 57] | 9
COc1c(N)nc(-c2ccc(C(F)(F)F)c(OC)c2F)nc1C(=O)OCCF [Compound 58] | 9
COc1c(N)nc(-c2ccc(C(F)(F)F)c(OC)c2F)nc1C(=O)OCCCl [Compound 59] | 9
COc1c(N)nc(-c2ccc(C(F)(F)F)c(OC)c2F)nc1C(=O)OCCBr [Compound 60] | 9
COc1c(N)nc(-c2ccc(C(F)(F)F)c(OC)c2F)nc1C(=O)OCC(F)F [Compound 61] | 9
COc1c(N)nc(-c2ccc(C(F)(F)F)c(OC)c2F)nc1C(=O)OCCCF [Compound 63] | 9
COc1c(N)nc(-c2ccc(C(F)(F)F)c(OC)c2F)nc1C(=O)OCCC(F)(F)F [Compound 64] | 9
COCOC(=O)c1nc(-c2ccc(C(F)(F)F)c(OC)c2F)nc(N)c1OC [Compound 72] | 9
COc1c(N)nc(-c2ccc(C(F)(F)F)c(OC)c2F)nc1C(=O)OCCO [Compound 73] | 9
COc1c(N)nc(-c2ccc(C(F)(F)F)c(OC)c2F)nc1C(=O)OCC(OC)OC [Compound 76] | 9
CCOC(=O)COC(=O)c1nc(-c2ccc(C(F)(F)F)c(OC)c2F)nc(N)c1OC [Compound 81] | 9
COC(=O)C(C)OC(=O)c1nc(-c2ccc(C(F)(F)F)c(OC)c2F)nc(N)c1OC (stereo not shown) [Compound 82] | 9
CCOC(=O)OC(C)OC(=O)c1nc(-c2ccc(C(F)(F)F)c(OC)c2F)nc(N)c1OC (stereo not shown) [Compound 93] | 9
COc1c(N)nc(-c2ccc(C(F)(F)F)c(OC)c2F)nc1C(=O)OCCSC [Compound 100] | 9
COc1c(N)nc(-c2ccc(C(F)(F)F)c(OC)c2F)nc1C(=O)OCC#N [Compound 103] | 9
COc1c(N)nc(-c2ccc(C(F)(F)F)c(OC)c2F)nc1C(=O)OCC1CC1 [Compound 117] | 9

SMILES | activity level of plant damage (growth control rate), Veronica
COc1c(N)nc(-c2ccc(C(F)(F)F)c(OC)c2F)nc1C(=O)OC1CCCC1 [Compound 119] | 9
COc1c(N)nc(-c2ccc(C(F)(F)F)c(OC)c2F)nc1C(=O)OCC1CCCO1 (stereo not shown) [Compound 121] | 9
COc1c(N)nc(-c2ccc(C(F)(F)F)c(OC)c2F)nc1C(=O)Oc1ccccc1 [Compound 129] | 9
COc1c(N)nc(-c2ccc(C(F)(F)F)c(OC)c2F)nc1C(=O)OCc1ccccc1 [Compound 130] | 9
COc1c(N)nc(-c2ccc(C(F)(F)F)c(OC)c2F)nc1C(=O)OCc1ccccc1F [Compound 133] | 9
COc1cc(-c2nc(N)c(OC)c(C(=O)OCc3ccccn3)n2)ccc1C(F)(F)F [Compound 150] | 9
COc1cc(-c2nc(N)c(OC)c(C(=O)OCc3cccnc3)n2)ccc1C(F)(F)F [Compound 151] | 9
COc1cc(-c2nc(N)c(OC)c(C(=O)OCc3ccncc3)n2)ccc1C(F)(F)F [Compound 152] | 9
COc1cc(-c2nc(N)c(OC)c(C(=O)SC)n2)ccc1C(F)(F)F [Compound 155] | 9
CCSC(=O)c1nc(-c2ccc(C(F)(F)F)c(OC)c2)nc(N)c1OC [Compound 156] | 9
COCCSC(=O)c1nc(-c2ccc(C(F)(F)F)c(OC)c2F)nc(N)c1OC [Compound 190] | 9
COc1c(N)nc(-c2ccc(C(F)(F)F)c(OC)c2F)nc1C(=O)OCC(C)F (stereo not shown) [Compound 191] | 9
COc1c(N)nc(-c2ccc(C(F)(F)F)c(OC)c2F)nc1C(=O)ON=C(C)C(C)(C)C [Compound 192] | 9
COc1c(N)nc(-c2ccc(C(F)(F)F)c(OC)c2F)nc1C(=O)OCc1ccn(C)n1 [Compound 193] | 9
COc1c(N)nc(-c2ccc(C(F)(F)F)c(OC)c2F)nc1C(=O)[O-].[K+] [Compound 199] | 9
COc1c(N)nc(-c2ccc(C(F)(F)F)c(OC)c2F)nc1C(=O)[O-].[Na+] [Compound 200] | 9
COC(=O)c1nc(-c2ccc(Br)c(OC)c2F)nc(N)c1OC [Compound 201] | 9
CCOC(=O)c1nc(-c2ccc(Br)c(OC)c2F)nc(N)c1OC [Compound 202] | 9
CCCOC(=O)c1nc(-c2ccc(Br)c(OC)c2F)nc(N)c1OC [Compound 203] | 9
COc1c(N)nc(-c2ccc(Br)c(OC)c2F)nc1C(=O)OC(C)C [Compound 204] | 9
COc1c(N)nc(-c2ccc(Br)c(OC)c2F)nc1C(=O)OCC(F)F [Compound 205] | 9
COc1c(N)nc(-c2ccc(Br)c(OC)c2F)nc1C(=O)OCC#N [Compound 209] | 9
COc1c(N)nc(-c2ccc(Br)c(OC)c2F)nc1C(=O)ON=C(C)C [Compound 210] | 9
